According to ChEMBL document CHEMBL1135808, “A new type of mixed anhydride and its applications to the synthesis of 7-substituted 8-chloro-5,5-dioxoimidazo[1,2-b][1,4,2]benzodithiazines with in vitro antitumor activity” (2002):

system: T47D; assay: In vitro total growth inhibition against breast cancer […] cell lines was reported.; format: functional; details: Homo sapiens, read-out: Log TGI (converted)

Compound | TGI
Cc1ccc2cccc(NC(=O)c3cc4c(cc3Cl)Sc3nccn3S4(=O)=O)c2n1 | 6.31 µM

system: SF-268; assay: In vitro growth inhibition against CNS cancer SF-268 cell line was reported.; format: functional; details: Homo sapiens

Compound | GI50
Cc1ccc2cccc(NC(=O)c3cc4c(cc3Cl)Sc3nccn3S4(=O)=O)c2n1 | 9.55 µM

system: PC-3; assay: In vitro growth inhibition against prostate cancer PC-3 cell line was reported.; format: functional; details: Homo sapiens

Compound | GI50
Cc1ccc2cccc(NC(=O)c3cc4c(cc3Cl)Sc3nccn3S4(=O)=O)c2n1 | 2690 nM

system: MDA-MB-435; assay: In vitro total growth inhibition against breast cancer MDA-MB-435 cell lines was reported.; details: Homo sapiens, read-out: Log TGI (converted)

Compound | TGI
Cc1ccc2cccc(NC(=O)c3cc4c(cc3Cl)Sc3nccn3S4(=O)=O)c2n1 | 22.9 µM

system: SR; assay: In vitro total growth inhibition against leukemia SR cell lines was reported.; format: functional; details: Homo sapiens, read-out: Log TGI (converted)

Compound | TGI
Cc1ccc2cccc(NC(=O)c3cc4c(cc3Cl)Sc3nccn3S4(=O)=O)c2n1 | 5.89 µM

system: HL-60; assay: In vitro growth inhibition against leukemia HL-60(TB) cell line was reported.; format: functional; details: Homo sapiens

Compound | GI50
Cc1ccc2cccc(NC(=O)c3cc4c(cc3Cl)Sc3nccn3S4(=O)=O)c2n1 | 10 nM

system: NCI/ADR-RES; assay: In vitro total growth inhibition against breast cancer NCI/ADR-RES cell lines was reported.; format: functional; details: Homo sapiens, read-out: Log TGI (converted)

Compound | TGI
Cc1ccc2cccc(NC(=O)c3cc4c(cc3Cl)Sc3nccn3S4(=O)=O)c2n1 | 41.7 µM

system: A549; assay: In vitro total growth inhibition against non-small-cell lung cancer A 549/ATCC cell lines was reported.; format: functional; details: Homo sapiens, read-out: Log TGI (converted)

Compound | TGI
Cc1ccc2cccc(NC(=O)c3cc4c(cc3Cl)Sc3nccn3S4(=O)=O)c2n1 | 25.7 µM

system: OVCAR-4; assay: In vitro growth inhibition against ovarian cancer OVCAR-4 cell line was reported.; format: functional; details: Homo sapiens

Compound | GI50
Cc1ccc2cccc(NC(=O)c3cc4c(cc3Cl)Sc3nccn3S4(=O)=O)c2n1 | 11 µM

system: SW-620; assay: In vitro growth inhibition against colon cancer SW620 cell line was reported.; format: functional; details: Homo sapiens

Compound | GI50
Cc1ccc2cccc(NC(=O)c3cc4c(cc3Cl)Sc3nccn3S4(=O)=O)c2n1 | 7.76 µM

system: U-251; assay: In vitro total growth inhibition against CNS cancer U251 cell lines was reported.; format: functional; details: Homo sapiens, read-out: Log TGI (converted)

Compound | TGI
Cc1ccc2cccc(NC(=O)c3cc4c(cc3Cl)Sc3nccn3S4(=O)=O)c2n1 | 14.5 µM

system: NCI-H226; assay: In vitro total growth inhibition against non-small-cell lung cancer NCI-H226 cell lines was reported.; format: functional; details: Homo sapiens, read-out: Log TGI (converted)

Compound | TGI
Cc1ccc2cccc(NC(=O)c3cc4c(cc3Cl)Sc3nccn3S4(=O)=O)c2n1 | 57.5 µM

system: 786-0; assay: Log of molar concentration leading to 50% cell death against renal cancer […] cell line was reported; format: functional; details: Homo sapiens, read-out: Log LC50 (the source's name) (converted)

Compound | CC50
Cc1ccc2cccc(NC(=O)c3cc4c(cc3Cl)Sc3nccn3S4(=O)=O)c2n1 | 91.2 µM

system: A498; assay: In vitro growth inhibition against renal cancer A498 cell line was reported.; format: functional; details: Homo sapiens

Compound | GI50
Cc1ccc2cccc(NC(=O)c3cc4c(cc3Cl)Sc3nccn3S4(=O)=O)c2n1 | 16.2 µM

system: M14; assay: In vitro growth inhibition against melanoma M14 cell line was reported.; format: functional; details: Homo sapiens

Compound | GI50
Cc1ccc2cccc(NC(=O)c3cc4c(cc3Cl)Sc3nccn3S4(=O)=O)c2n1 | 7.24 µM

system: IGROV-1; assay: In vitro growth inhibition against ovarian cancer IGROV1 cell line was reported.; format: functional; details: Homo sapiens

Compound | GI50
Cc1ccc2cccc(NC(=O)c3cc4c(cc3Cl)Sc3nccn3S4(=O)=O)c2n1 | 3.24 µM

system: HCT-116; assay: In vitro total growth inhibition against colon cancer HCT116 cell lines was reported.; format: functional; details: Homo sapiens, read-out: Log TGI (converted)

Compound | TGI
Cc1ccc2cccc(NC(=O)c3cc4c(cc3Cl)Sc3nccn3S4(=O)=O)c2n1 | 17 µM

system: KM12; assay: In vitro growth inhibition against colon cancer KM12 cell line was reported.; format: functional; details: Homo sapiens

Compound | GI50
Cc1ccc2cccc(NC(=O)c3cc4c(cc3Cl)Sc3nccn3S4(=O)=O)c2n1 | 6.61 µM

system: MDA-MB-435; assay: In vitro growth inhibition against breast cancer MDA-MB-435 cell line was reported.; details: Homo sapiens

Compound | GI50
Cc1ccc2cccc(NC(=O)c3cc4c(cc3Cl)Sc3nccn3S4(=O)=O)c2n1 | 7.94 µM

system: NCI-H322M; assay: Log of molar concentration leading to 50% cell death against non-small-cell lung cancer NCI-H322M cell line was reported; format: functional; details: Homo sapiens, read-out: Log LC50 (the source's name) (converted)

Compound | CC50
Cc1ccc2cccc(NC(=O)c3cc4c(cc3Cl)Sc3nccn3S4(=O)=O)c2n1 | 50.1 µM

system: MDA-MB-231; assay: In vitro growth inhibition against breast cancer MDA-MB-231/ATCC cell line was reported.; format: functional; details: Homo sapiens

Compound | GI50
Cc1ccc2cccc(NC(=O)c3cc4c(cc3Cl)Sc3nccn3S4(=O)=O)c2n1 | 11.5 µM

system: OVCAR-4; assay: In vitro total growth inhibition against ovarian cancer OVCAR-4 cell lines was reported.; format: functional; details: Homo sapiens, read-out: Log TGI (converted)

Compound | TGI
Cc1ccc2cccc(NC(=O)c3cc4c(cc3Cl)Sc3nccn3S4(=O)=O)c2n1 | 24.5 µM

system: EKVX; assay: Log of molar concentration leading to 50% cell death against non-small-cell lung cancer EKVX cell line was reported; format: functional; details: Homo sapiens, read-out: Log LC50 (the source's name) (converted)

Compound | CC50
Cc1ccc2cccc(NC(=O)c3cc4c(cc3Cl)Sc3nccn3S4(=O)=O)c2n1 | 77.6 µM

system: PC-3; assay: Log of molar concentration leading to 50% cell death against prostate cancer PC-3 cell line was reported; format: functional; details: Homo sapiens, read-out: Log LC50 (the source's name) (converted)

Compound | CC50
Cc1ccc2cccc(NC(=O)c3cc4c(cc3Cl)Sc3nccn3S4(=O)=O)c2n1 | 32.4 µM

system: RXF 393; assay: In vitro total growth inhibition against renal cancer RXF 393 cell lines was reported.; format: functional; details: Homo sapiens, read-out: Log TGI (converted)

Compound | TGI
Cc1ccc2cccc(NC(=O)c3cc4c(cc3Cl)Sc3nccn3S4(=O)=O)c2n1 | 25.1 µM

system: SF-295; assay: In vitro growth inhibition against CNS cancer SF-295 cell line was reported.; format: functional; details: Homo sapiens

Compound | GI50
Cc1ccc2cccc(NC(=O)c3cc4c(cc3Cl)Sc3nccn3S4(=O)=O)c2n1 | 11.5 µM

system: MOLT-4; assay: In vitro total growth inhibition against leukemia MOLT-4 cell lines was reported.; format: functional; details: Homo sapiens, read-out: Log TGI (converted)

Compound | TGI
Cc1ccc2cccc(NC(=O)c3cc4c(cc3Cl)Sc3nccn3S4(=O)=O)c2n1 | 20 µM

system: TK-10; assay: Log of molar concentration leading to 50% cell death against renal cancer TK-10 cell line was reported; format: functional; details: Homo sapiens, read-out: Log LC50 (the source's name) (converted)

Compound | CC50
Cc1ccc2cccc(NC(=O)c3cc4c(cc3Cl)Sc3nccn3S4(=O)=O)c2n1 | 45.7 µM

system: TK-10; assay: In vitro total growth inhibition against renal cancer TK-10 cell lines was reported.; format: functional; details: Homo sapiens, read-out: Log TGI (converted)

Compound | TGI
Cc1ccc2cccc(NC(=O)c3cc4c(cc3Cl)Sc3nccn3S4(=O)=O)c2n1 | 20.9 µM

system: RXF 393; assay: Log of molar concentration leading to 50% cell death against renal cancer RXF 393 cell line was reported; format: functional; details: Homo sapiens, read-out: Log LC50 (the source's name) (converted)

Compound | CC50
Cc1ccc2cccc(NC(=O)c3cc4c(cc3Cl)Sc3nccn3S4(=O)=O)c2n1 | 64.6 µM
